Data published in patent US20100298136A1, “ACTIVE INGREDIENT COMBINATIONS WITH INSECTICIDAL PROPERTIES” (BAYER CROPSCIENCE AG, priority 2006, published 2010).

Assays:
[1] = tested on: green peach aphid (Myzus persicae); assay: Myzus persicae test (cabbage leaf dip); format: in vivo; conditions: single active compound, 0.16 ppm
Protocol: (§1) Solvent: 7 parts by weight of dimethylformamide Emulgator: 2 parts by weight of alkylaryl polyglycol ether
(§2) To produce a suitable preparation of active compound, 1 part by weight of active compound is mixed with the stated amounts of solvent and emulsifier, and the concentrate is diluted with water to the desired concentration.
Cabbage leaves (Brassica oleracea) which are heavily infested by the green peach aphid (Myzus persicae) are treated by being dipped into the preparation of active compound of the desired concentration.
After the desired period of time, the kill in % is determined. 100% means that all aphids have been killed; 0% means that none of the aphids have been killed. The kill rates determined are entered into the Colby formula (see sheet 1).

[2] = tested on: larvae of the mustard beetle (Phaedon cochleariae); assay: Phaedon cochleariae larvae test (cabbage leaf dip); format: in vivo; conditions: single active compound
Protocol: Phaedon cochleariae Larvae Test
as §1, §2
Cabbage leaves (Brassica oleracea) are treated by being dipped into the preparation of active compound of the desired concentration and populated with larvae of the mustard beetle (Phaedon cochleariae) while the leaves are still moist.
After the desired period of time, the kill in % is determined. 100% means that all beetle larvae have been killed; 0% means that none of the beetle larvae have been killed. The kill rates determined are entered into the Colby formula (see sheet 1).

| Structure (SMILES) | Kill in % after 6d [1] [%] | Kill in % after 4d ([2]; 20 ppm) [%] | Kill in % after 4d ([2]; 4 ppm) [%] |
| --- | --- | --- | --- |
| O=[N+]([O-])/N=C1\NCCN1Cc1ccc(Cl)nc1 [imidacloprid, reference compound] | 20 | 53 |  |
| CN(Cc1ccc(Cl)nc1)C1=CC(=O)OC1 [compound (Ia)] | 10 | 16 | 5 |
